The values that follow are results of earlier work, collected in patent publication US20050186168A1, “Skin remodeling and regenerative compositions containing elastin peptide ligands having the amino acid sequence (XGXXPG)n” (priority 2004, published 2005).

The test system of one data set is pro-MMP-1. Conditions: for concentration sufficient to stimulate pro-MMP-1 production: fibroblast culture, comparable stimulation levels.
The subject of data set [1] is elastin-laminin receptor (ELR). Conditions: 5 micrograms/ml (140 micromolar), 10th and 15th passage.
The next data set concerns Human lymphocytes. The following applies: 1 microgram/ml.
The subject of the next data set is MMP-1 mRNA. The following applies: after 24 h of culture; standardized with 36B4 cDNA probe.
Where [2] appears, read: 1 mM lactose in fibroblast culture medium.

For the molecule LGTIPG, the “stimulation of MMP-1 expression” value in the data set with pro-MMP-1 (laminin-derived peptide) is “Stimulation of MMP-1 expression could also be achieved”.
Consider `OC[C@H]1O[C@H](OCC2O[C@@H](O)[C@H](O)[C@@H](O)[C@@H]2O)[C@H](O)[C@@H](O)[C@H]1O` (stereo partly shown) [melibiose], for which, in data set [1], the fibronectin biosynthesis result was “decreased” and the total protein biosynthesis result is on record as “decreased”. For the same molecule, the “elastin peptide-induced cell death” value in the data set with Human lymphocytes was “inhibited”. Besides, in the data set on human skin fibroblasts, the “incorporation of the tracer in GAGs” value is “increased” and the “post-synthetic degradation of hyaluronan” value is listed as “inhibited”.
Regarding `OC[C@H]1O[C@@H](O[C@H]2[C@H](O)[C@@H](O)C(O)O[C@@H]2CO)[C@H](O)[C@@H](O)[C@H]1O` (stereo partly shown) [lactose], in the data set on pro-MMP-1 (setting [2]), the “inhibition of VGVAPG-stimulating effect on pro-MMP-1 production” value is 80% and the “inhibition of kE-stimulated pro-MMP-1 production” value is recorded as 35%. Besides, the “effect on pro-MMP-1 accumulation stimulated by interleukin-1” value in the data set on pro-MMP-1 (lactose alone) was “no effect”. Also, the “elastin peptide-induced cell death” value with Human lymphocytes is “inhibited”. Besides, in the data set with pro-MMP-3 (cells treated with 1 mM lactose), the “accumulation of pro-MMP-3 in the medium” value is “decreased”.
As for VGVAPG, in the data set with pro-MMP-1, the pro-MMP-1 induction level is given as 1 ng/h/10^5 fibroblasts and the “concentration sufficient to stimulate pro-MMP-1 production” value (from here on “concentration sufficient”) was 200 µg/mL. The “MMP-1 mRNA levels increased” value in the data set with MMP-1 mRNA is 8 fold. Also, in the data set with pro-MMP-3 (Western blotting, stimulated fibroblasts), the “expression of proteins reacting with anti-MMP-3 antibody (pro-MMP-3)” value is given as “significantly up-regulated”.
GVAPGV: the “efficiency of pro-MMP-1 induction relative to VGVAPG (more efficient)” value with pro-MMP-1 (compared with VGVAPG) was 20%.
For “interleukin-1 receptor antagonist: interleukin-1 receptor antagonist”, the “blocking of elastin peptide-dependent induction of pro-MMP-1” value in the data set on pro-MMP-1 is “could not be blocked”.

B1: Elastin: extracellular matrix protein elastin (protein, UniProt P15502 27-786, looked up)
Elastin: GGVPGAIPGGVPGGVFYPGAGLGALGGGALGPGGKPLKPVPGGLAGAGLGAGLGAFPAVTFPGALVPGGVADAAAAYKAAKAGAGLGGVPGVGGLGVSAGAVVPQPGAGVKPGKVPGVGLPGVYPGGVLPGARFPGVGVLPGVPTGAGVKPKAPGVGGAFAGIPGVGPFGGPQPGVPLGYPIKAPKLPGGYGLPYTTGKLPYGYGPGGVAGAAGKAGYPTGTGVGPQAAAAAAAKAAAKFGAGAAGVLPGVGGAGVPGVPGAIPGIGGIAGVGTPAAAAAAAAAAKAAKYGAAAGLVPGGPGFGPGVVGVPGAGVPGVGVPGAGIPVVPGAGIPGAAVPGVVSPEAAAKAAAKAAKYGARPGVGVGGIPTYGVGAGGFPGFGVGVGGIPGVAGVPGVGGVPGVGGVPGVGISPEAQAAAAAKAAKYGAAGAGVLGGLVPGAPGAVPGVPGTGGVPGVGTPAAAAAKAAAKAAQFGLVPGVGVAPGVGVAPGVGVAPGVGLAPGVGVAPGVGVAPGVGVAPGIGPGGVAAAAKSAAKVAAKAQLRAAAGLGAGIPGLGVGVGVPGLGVGAGVPGLGVGAGVPGFGAGADEGVRRSLSPELREGDPSSSQHLPSTPSSPRVPGALAAAKAAKYGAAVPGVLGGLGALGGVGIPGGVVGAGPAAAAAAAKAAAKAAQFGLVGAAGLGGLGVGGLGVPGVGGLGGIPPAAAAKAAKYGAAGLGGVLGGAGQFPLGGVAARPGFGLSPIFPGGACLGKACGRKRK
With B1, in the data set on pro-MMP-1, the “concentration sufficient” value was 50 µg/mL.

B2: tropoelastin: the soluble precursor of elastin (protein, UniProt P15502 27-786, looked up)
Elastin: B1 Elastin
In the case of B2, the “concentration sufficient” value with pro-MMP-1 was 50 µg/mL.
